Where two headings read alike, the source gives them in different places.
What was measured:
rat neutrophils [1] = conditions: rat neutrophils stimulated with fMLP; concentration of 3 mg/mL; cited from earlier work
[2] = tested on: rat peritoneal mast cells; experiment: Mast cell degranulation stimulated with compound 48/80 (release of β-glucuronidase and histamine); type: cell-based; conditions: for IC50: Mast cell, compound 48/80 (10 μg/mL); for % of inhibition of Histamine release at the highest concentration / % of inhibition of β-Glucuronidase release at the highest concentration: compound 48/80, at the highest concentration (bound given in the source)
Protocol: Heparinized Tyrode's solution was injected into the peritoneal cavity of exsanguinated rat (Sprague-Dawley, 250-300 g, 10-12 weeks old). […] Cell pellets were washed and suspended in Tyrode's solution with 0.1% BSA to 1×10^6 cells/mL. Cell suspension was then preincubated at 37° C. with DMSO or a tested compound for 5 min. The final volume of DMSO in the reaction mixture was≦0.5%. […] After treatment of the cell suspension with Triton X-100, the total content of β-glucuronidase and histamine was measured, and the percentage release was calculated. In the experiment, Mepacrine was used as a positive control.

rat neutrophils [3] = experiment: Neutrophil degranulation stimulated with fMLP/CB (release of β-glucuronidase and lysozyme); type: cell-based; conditions: for IC50: Neutrophil, fMLP (1 μM)/CB (5 μg/mL); for IC50 / % of inhibition of Lysozyme release at the highest concentration / % of inhibition of β-Glucuronidase release at the highest concentration: rat neutrophils; for % of inhibition of Lysozyme release at the highest concentration / % of inhibition of β-Glucuronidase release at the highest concentration: at the highest concentration (bound given in the source)
Protocol: Blood was withdrawn from rat (Sprague-Dawley, 250-300 g, 10-12 weeks old) and mixed with EDTA. […] Cell suspension was preincubated at 37° C. with DMSO or drugs for 10 min, and then challenged with fMLP (1 μM)/CB (5 μg/mL). The final volume of DMSO in the reaction mixture was≦0.5%. […] After treatment of the cell suspension with Triton X-100, the total content of lysozyme and β-glucuronidase was measured and the percentage release was calculated. In the experiment, Trifluoperazine was used as a positive control.

rat neutrophils [4] = experiment: Superoxide anion generation in neutrophils stimulated with fMLP/CB or PMA (cytochrome c reduction); type: cell-based; conditions: for inhibition / IC50: Neutrophil; for inhibition / IC50 / % of inhibition of superoxide anion generation at the highest concentration, fMLP/CB: rat neutrophils; for inhibition / % of inhibition of superoxide anion generation at the highest concentration, fMLP/CB: at the highest concentration (bound given in the source)
Protocol: Superoxide anion generation was measured in terms of superoxide dismutase-inhibitable cytochrome c reduction (M. Market et al. (1984), Methods Enzymol., 105, 358). Neutrophil suspension was preincubated with DMSO or a tested compound for 3 min, and then superoxide dismutase or Hank's balanced salt solution (HBSS) was added into the blank and test wells, respectively. The final volume of DMSO in the reaction mixture was≦0.5%. After addition of cytochrome c, reaction was initiated by challenge with formyl-Met-Leu-Phe (fMLP) (0.3 μM)/cytochalasin B (CB) (5 μg/mL) or phorbol myristate acetate (PMA) (3 nM). Thirty minutes later, the reaction was terminated by centrifugation and the absorbance changes of supernatant were monitored at 550 nm in a microplate reader. In the experiment, Trifluoperazine was used as a positive control

RAW 264.7 cells = experiment: NO production (nitrite accumulation, Griess reaction) in LPS-stimulated macrophage-like cells; type: cell-based, mouse; conditions: for suppression of LPS-induced NO production in RAW 264.7 cells (in words) / IC50: LPS (1 μg/mL), 24 hrs; for IC50: read-out: IC50, accumulation of NO2− in culture media, RAW 264.7 cells; for % of inhibition of NO2− accumulation at the highest concentration, RAW 264.7 cells: LPS, at the highest concentration (bound given in the source)
Protocol: RAW 264.7 mouse macrophage-like cell line (American Type Culture Collection (ATCC), PO Box 1549, Manassas, Va. 20108 USA) was plated in 96 well tissue-culture plates in Dulbecco's Modified Eagle Medium (DMEM) supplemented with 10% fetal calf serum (FCS), 100 units/ml of penicillin and streptomycin at 2×10^5 cells/200 μL per well. Cells were allowed to adhere overnight. The cells were treated with DMSO or a tested compound at 37° C. for 1 hr. followed by stimulation with 1 μg/mL of LPS (Escherichia coli, serotype 0111:B4) for 24 hrs. Thereafter, the medium in each well was collected and stored at −70° C. until use. The final volume of DMSO in the reaction mixture was≦0.5%.
(§1) The production of NO in cell medium was determined by measuring the content of nitrite based on the Griess reaction (L. Mingghetti et at (1997), Glia, 19, 152-160). Briefly, 40 μL of 5 mM sulfanilamide, 10 μL of 2 M HCl, and 20 μL of 40 mM naphthylethylenediamine were added into 150 μL culture medium in sequence. After 10 min of incubation at room temperature, absorbance was measured at 550 nm in a microplate reader. A standard nitrite curve was generated in the same fashion, using NaNO2.

N9 cells = experiment: NO production (nitrite accumulation, Griess reaction) in LPS/IFN-γ-stimulated microglial cells; type: cell-based, murine; conditions: for IC50: LPS (10 ng/mL)/IFN-γ (10 unit/mL), 24 hrs, read-out: IC50, accumulation of NO2− in culture media, N9 cells; for % of inhibition of NO2− accumulation at the highest concentration, N9 cells: LPS/IFN-γ, at the highest concentration (bound given in the source)
Protocol: Cells of murine microglial cell line N9 (kindly provided by Dr. P. Ricciardi-Castagnoli, CNR Cellular and Molecular Pharmacology Center, Italy) (S. B. Corradin et al. (1993), Glia, 7, 255-262) were suspended in Iscove's Modified Dulbecco's medium containing 5% heat-inactivated FCS and antibiotics and then plated into 96-well tissue-culture plates at 8×10^4 cells/200 μL per well. The cells were treated with DMSO or a tested compound at 37° C. for 1 hr, followed by stimulation with LPS (10 ng/mL)/IFN-γ (10 unit/mL) for 24 hrs. Thereafter, the medium in each well was collected and stored at −70° C. until use. The final volume of DMSO in the reaction mixture was<0.5%
as §1

[5] = read-out: IG50, release of Histamine
[6] = read-out: IG50, release of β-Glucuronidase
[7] = read-out: IC50, release of Lysozyme
[8] = read-out: IC50, release of β-Glucuronidase
[9] = PMA (3 nM), read-out: IC50, superoxide anion generation, PMA
[10] = fMLP (0.3 μM)/CB (5 μg/mL), read-out: IC50, superoxide anion generation, fMLP/CB

SMILES	IC50 [2, 5] [µM]	IC50 [2, 6] [µM]	% of inhibition of Histamine release at the highest concentration [2] [%]	% of inhibition of β-Glucuronidase release at the highest concentration [2] [%]	IC50 (rat neutrophils [3]; [7]) [µM]	IC50 (rat neutrophils [3]; [8]) [µM]	inhibition (rat neutrophils [4]; PMA (3 nM)) [%]	IC50 (rat neutrophils [4]; [9]) [µM]	IC50 (rat neutrophils [4]; [10]) [µM]	IC50 (RAW 264.7 cells; Mus musculus, RAW264.7) [µM]	IC50 (N9 cells; Mus musculus, N9) [µM]	melting point [°C]	% of inhibition of NO2− accumulation at the highest concentration, RAW 264.7 cells (RAW 264.7 cells) [%]	% of inhibition of NO2− accumulation at the highest concentration, N9 cells (N9 cells) [%]	other results
CC(C)=CCc1cc(C(=O)/C=C/c2ccc(O)c(O)c2)c(O)cc1O [Brousschalcone A]															% inhibition of release of lysozyme (rat neutrophils [1]): 68.0±13.4%; % inhibition of release of β-glucuronidase (rat neutrophils [1]): 51.1±12.6%
COc1ccc(OC)c(C(=O)/C=C/c2ccc(O)cc2)c1 [Compound 1, 2′,5′-Dimethoxy-4-hydroxychalcone]	> 30	> 30	10.0 ± 5.1	8.3 ± 2.3	28.3 ± 1.9	20.6 ± 2	36.3	> 30	19.5 ± 3.5	14.6 ± 0.1	17.8 ± 0.2	127 to 128			suppression of LPS-induced NO production in RAW 264.7 cells (in words) (RAW 264.7 cells): suppressed
COc1ccc(OC)c(C(=O)/C=C/c2ccc(Br)cc2)c1 [Compound 2, 4-Bromo-2′,5′-dimethoxychalcone]	> 30	> 30	21.7 ± 1.5	28.6 ± 3.4	5.7 ± 0.3	5.6 ± 0.3	22.9	> 30	8 ± 2.4	> 10	> 10	85 to 87	8.9 ± 4.0	−5.6 ± 1.1	
COc1ccc(OC)c(C(=O)/C=C/c2ccc(Cl)c(Cl)c2)c1 [Compound 3, 3,4Dichloro-2′,5′-dimethoxychalcone]	> 30	> 30	35.2 ± 1.0	44.3 ± 2.3	5.1 ± 0.1	5 ± 0.3	-27.1	> 30	12.9 ± 0.4	> 3	> 3	121 to 123	2.0 ± 3.1	4.3 ± 3.1	
O=C(/C=C/c1ccc(Cl)c(Cl)c1)c1cc(O)ccc1O [Compound 4, 3,4-Dichloro-2′,5′-dihydroxychalcone]							21.9	> 10	0.6 ± 0.2	> 1	> 1	171 to 174	−4.9 ± 1.9	−10.3 ± 1.5	inhibitory effect on fMLP/CB-induced superoxide anion generation (in words) (rat neutrophils [4]): more potent than the positive control, trifluoperazine
CCOc1ccc(OCC)c(C(=O)/C=C/c2ccc(Cl)c(Cl)c2)c1 [Compound 5, 3,4-Dichloro-2′,5′-diethoxychalcone]	> 30	> 30	12.9 ± 7.9	5.5 ± 4.7	> 30	> 30	13.2	> 30	> 30	4.9 ± 0.3	3.7 ± 0.1	152 to 153			inhibitory effect on neutrophil degranulation (in words) (rat neutrophils [3]; fMLP/CB): no significant inhibitory effects; % of inhibition of Lysozyme release at the highest concentration (rat neutrophils [3]; fMLP/CB): 27.1 ± 5.0%; % of inhibition of β-Glucuronidase release at the highest concentration (rat neutrophils [3]; fMLP/CB): 30.6 ± 4.1%; inhibitory effect on fMLP/CB-induced superoxide anion generation (in words) (rat neutrophils [4]): not to have significant inhibitory effects; % of inhibition of superoxide anion generation at the highest concentration, fMLP/CB (rat neutrophils [4]): 32.4 ± 12.2%; suppression of LPS-induced NO production in RAW 264.7 cells (in words) (RAW 264.7 cells): suppressed
CCCOc1ccc(O)c(C(=O)/C=C/c2ccc(Cl)c(Cl)c2)c1 [Compound 6, 3,4-Dichloro-2′-hydroxy-5′-propoxy-chalcone]	> 30	> 30	47.6 ± 2.4	49.2 ± 2.0	6.6 ± 0.4	6.2 ± 0.3	49.9	> 30	17.7 ± 7.2	> 10	> 30	97 to 99	7.5 ± 0.4	26.4 ± 2.3	
O=C(/C=C/c1ccsc1)c1cc(O)ccc1O [Compound 7, 2′,5′-Dihydroxy-3-thienylchalcone]							23.5	> 1	> 1	> 3	> 3	156 to 157	9.7 ± 2.9	10.6 ± 8.2	% of inhibition of superoxide anion generation at the highest concentration, fMLP/CB (rat neutrophils [4]): 43.4 ± 6.1%
O=C(/C=C/c1cccs1)c1cccs1 [Compound 8, 2′,2-Dithienylchalcone]	> 30	> 30	20.9 ± 1.2	17.3 ± 2.6	> 30	> 30	35.6	> 30	24.3 ± 3.2	> 30	> 30	95 to 97	12.5 ± 2.2	15.2 ± 0.5	% of inhibition of Lysozyme release at the highest concentration (rat neutrophils [3]; fMLP/CB): 30.0 ± 1.4%; % of inhibition of β-Glucuronidase release at the highest concentration (rat neutrophils [3]; fMLP/CB): 46.6 ± 0.7%
COC(=O)[C@@H](N)CCCNC(=N)N[N+](=O)[O-] [L-NAME, N^ω-nitro-L-arginine methyl ether, reference compound]															IC50 (RAW 264.7 cells; positive control): 510 ± 20 µM; IC50 (N9 cells; positive control): 630 ± 10 µM
CCN(CC)CCCC(C)Nc1c2ccc(Cl)cc2nc2ccc(OC)cc12 (stereo not drawn) [Mepacrine, reference compound]	48.5 ± 3.8	32.2 ± 3.6													
CN1CCN(CCCN2c3ccccc3Sc3ccc(C(F)(F)F)cc32)CC1 [Trifluoperazine, reference compound]					18.3 ± 0.9	18.9 ± 2.1		9.7 ± 1.1	12.9 ± 1						
